{"source": "patent US20240350500A1", "about": "“PLK1 INHIBITOR IN COMBINATION WITH ANTI-ANGIOGENICS FOR TREATING METASTATIC CANCER” (CARDIFF ONCOLOGY, INC., priority 2022, published 2024)", "origin": "cited, not measured here", "key": {"AML [1]": {"system": "AML", "details": "intravenously in combination with LDAC, compared with LDAC alone; treatment naïve AML unsuitable for induction therapy"}, "AML [2]": {"system": "AML", "details": "combination with LDAC"}, "[3]": {"system": "metastatic colorectal cancer", "details": "2nd line"}, "[4]": {"system": "disseminated models of AML", "details": "in combination with cytarabine"}, "PLK1": {"molecular_target": "PLK1 (Homo sapiens, UniProt P53350)", "sequence (P53350 whole entry)": "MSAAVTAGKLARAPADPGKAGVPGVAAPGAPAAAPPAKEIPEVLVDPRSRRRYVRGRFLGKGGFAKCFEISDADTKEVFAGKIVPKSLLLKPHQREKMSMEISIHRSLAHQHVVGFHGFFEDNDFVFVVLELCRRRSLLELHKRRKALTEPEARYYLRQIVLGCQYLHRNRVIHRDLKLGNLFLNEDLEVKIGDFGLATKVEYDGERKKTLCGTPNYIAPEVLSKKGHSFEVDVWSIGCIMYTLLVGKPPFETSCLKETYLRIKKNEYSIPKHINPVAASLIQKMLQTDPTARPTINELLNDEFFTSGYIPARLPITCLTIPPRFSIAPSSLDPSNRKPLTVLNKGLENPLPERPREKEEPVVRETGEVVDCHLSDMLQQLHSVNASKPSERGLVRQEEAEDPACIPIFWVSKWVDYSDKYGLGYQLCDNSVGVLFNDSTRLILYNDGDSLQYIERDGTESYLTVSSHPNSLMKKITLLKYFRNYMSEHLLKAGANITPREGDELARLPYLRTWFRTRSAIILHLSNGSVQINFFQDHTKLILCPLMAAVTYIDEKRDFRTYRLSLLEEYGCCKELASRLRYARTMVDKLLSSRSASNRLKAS", "details": "including other PLK members"}, "[5]": {"details": "rodent and nonrodent species"}, "[6]": {"system": "HT29 human colon adenocarcinoma xenografts", "details": "in combination with irinotecan, compared to each agent alone"}, "[7]": {"system": "cell lines, both from solid as well as hematologic tumors"}, "[8]": {"details": "bev naïve (without prior bevacizumab)"}}, "note": "Where two headings read alike, the source gives them in different places.", "data": [{"compound": "CC[C@@H]1C(=O)N(C)c2cnc(Nc3ccc(C(=O)N[C@H]4CC[C@H](N5CCN(CC6CC6)CC5)CC4)cc3OC)nc2N1C(C)C", "note": "[volasertib]", "values": [{"measurement": "OS", "setting": "AML [1]", "value": "significant increase in OS"}, {"measurement": "benefit of the combination", "setting": "AML [2]", "value": "no benefit"}, {"measurement": "risk of severe infections", "setting": "AML [2]", "value": "increased risk of severe infections"}]}, {"compound": "bevacizumab: anti-angiogenics (angiogenesis inhibitor), Avastin", "values": [{"measurement": "mOS", "setting": "[3]; [8]", "value": 13.9, "unit": "months"}, {"measurement": "mPFS", "setting": "[3]; [8]", "value": 6.9, "unit": "months"}, {"measurement": "mOS", "setting": "[3]; patients with prior bev", "value": 12.5, "unit": "months"}, {"measurement": "mPFS", "setting": "[3]; patients with prior bev", "value": 6.7, "unit": "months"}]}, {"compound": "CN1CCN(c2ccc(OC(F)(F)F)c(Nc3ncc4c(n3)-c3c(c(C(N)=O)nn3CCO)CC4)c2)CC1", "note": "[onvansertib, 1-(2-hydroxyethyl)-8-{[5-(4-methylpiperazin-1-yl)-2-(trifluoromethoxy)phenyl]amino}-4,5-dihydro-1H-pyrazolo[4,3-h]quinazoline-3-carboxamide]", "values": [{"measurement": "effect on cytarabine antitumor activity", "setting": "[4]", "value": "significantly increased cytarabine antitumor activity"}, {"measurement": "tumor growth", "setting": "xenograft models of AML", "value": "inhibited"}, {"measurement": "specificity for PLK1 among a panel of 296 kinases", "setting": "PLK1", "value": "high specificity"}, {"measurement": "oral bioavailability", "setting": "[5]", "value": "good oral bioavailability"}, {"measurement": "inhibition of cell proliferation", "setting": "AML cell lines", "value": "inhibited cell proliferation at nanomolar concentrations"}, {"measurement": "tumor regression", "setting": "[6]", "value": "enhanced tumor regression"}, {"measurement": "cell-cycle effect", "setting": "[7]; cancer cell lines", "value": "mitotic cell-cycle arrest followed by apoptosis"}, {"measurement": "potency in proliferation assays", "setting": "[7]; large number of cell lines", "value": "low nanomolar activity"}, {"measurement": "primary dose-limiting toxicities", "setting": "patients with advanced/metastatic solid tumors", "value": "neutropenia and thrombocytopenia"}, {"measurement": "time to recovery from hematologic toxicities", "setting": "reversible", "value": "≤ 3", "unit": "weeks"}]}]}
